Experimental data from article PMC7397142, “Discovery of Novel Tankyrase Inhibitors through Molecular Docking-Based Virtual Screening and Molecular Dynamics Simulation Studies” (Molecules, 2020).
pIC50: −log10 of the molar value. Like-named read-outs stand apart in the source and are kept apart here.

Tests used:
tankyrase 2 (TNKS2) [1] = biological target: T1, tankyrase 2 (TNKS2) (Homo sapiens, UniProt Q9H2K2); experiment: immunochemical dot-blot assay of PAR accumulation, […] NAD+; 4PL fit gave […]; type: biochemical
T1 construct: catalytic fragment (human, recombinant, residues 849–1166)

tankyrase 2 (TNKS2) [2] = biological target: T1, tankyrase 2 (TNKS2); experiment: as above; type: biochemical; remark: listed apart in the source

T1 sequence (Q9H2K2 849-1166): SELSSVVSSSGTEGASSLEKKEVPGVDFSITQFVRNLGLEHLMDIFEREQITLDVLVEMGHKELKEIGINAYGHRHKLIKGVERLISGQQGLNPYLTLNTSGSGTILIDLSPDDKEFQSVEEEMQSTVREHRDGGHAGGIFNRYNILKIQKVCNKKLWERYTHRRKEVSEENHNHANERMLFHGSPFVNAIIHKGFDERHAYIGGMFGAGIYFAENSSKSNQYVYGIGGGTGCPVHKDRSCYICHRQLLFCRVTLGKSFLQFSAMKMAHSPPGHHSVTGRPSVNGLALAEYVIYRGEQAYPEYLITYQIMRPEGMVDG

COc1ccc2oc(=O)c(-c3ccc(OCC(=O)NCc4cccnc4)cc3)cc2c1 [A3]
pIC50 (tankyrase 2 (TNKS2) [1]): > 5.00

O=C(NCCNC(=O)c1cnccn1)c1ccc(-c2cc3ccccc3oc2=O)cc1 [A1]
pIC50 (tankyrase 2 (TNKS2) [2]): > 8.00
